According to patent US8791132B2, “Compounds and methods for treatment of hypertension” (Medivation Technologies, Inc., priority 2011, dated 2014):

Experiments:
[1] = system: conscious New Zealand White rabbits; experiment: Blood pressure in conscious rabbits; assay type: in vivo, rabbit
Procedure: Methods: Four adult New Zealand White rabbits of both sexes were chosen for these studies. […] To unveil peripheral effects of Compound 3b, two sets of acute studies were conducted in rabbits. […] A single intravenous bolus dose at 3 mg/kg was given and a time-course study was conducted in the second set of studies. Systolic, […], mean and […] blood pressures were recorded in both the studies. […] In a separate set of studies, Clonidine (positive control) was tested where all experimental procedures including dose-regimen were identical to that of the studies with […].

[2] = target: T1, human Adrenergic a2A receptor (Homo sapiens, UniProt P08913); experiment: Inverse agonist activity, GTPg35S binding functional assay (FAST-006G); assay type: biochemical; conditions: dose-response, duplicates (FIG. 28)
T1 construct: purchased Euroscreen FAST-006G
T1 sequence (P08913 1-465): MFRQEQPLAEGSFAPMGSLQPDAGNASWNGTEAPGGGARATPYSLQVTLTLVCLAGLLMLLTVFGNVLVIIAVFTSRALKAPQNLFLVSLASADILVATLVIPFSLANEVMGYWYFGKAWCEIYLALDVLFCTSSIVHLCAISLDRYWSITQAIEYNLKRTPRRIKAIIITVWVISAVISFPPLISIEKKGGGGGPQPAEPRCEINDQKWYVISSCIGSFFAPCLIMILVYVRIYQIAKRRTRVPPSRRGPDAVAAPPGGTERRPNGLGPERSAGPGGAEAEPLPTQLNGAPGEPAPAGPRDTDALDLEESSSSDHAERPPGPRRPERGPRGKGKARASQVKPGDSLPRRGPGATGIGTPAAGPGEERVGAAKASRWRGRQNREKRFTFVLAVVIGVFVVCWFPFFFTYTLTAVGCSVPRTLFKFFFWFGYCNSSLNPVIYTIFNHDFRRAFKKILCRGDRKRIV
Procedure: SPA 35S-GTPgS and Radioligand Binding experiments were conducted with Euroscreen membrane preparations. Compound was tested for inverse agonist activity at the human Adrenergic a2A receptor using GTPg35S binding functional assay (FAST-006G) in dose-response and in duplicates.

Compound	dose that produced 80% of the maximum drop in blood pressure ([1]; i.v. cumulative dose-response study) [mg/kg]	heart rate ([1]; i.v. cumulative dose-response study (FIG. 26, fourth panel))	maximum arterial blood pressure drop ([1]; i.v. cumulative dose-response study, Compound 3b maximum at 10 mg/kg) [mmHg]	duration of arterial blood pressure effect ([1]; single i.v. bolus dose at 3 mg/kg, 3 hours data collection)	drop in arterial blood pressure ([1]; single i.v. bolus dose at 3 mg/kg, time-course study (FIG. 27)) [mmHg]	inverse agonist activity [2]
Cc1ccc2c(c1)c1c(n2CC(O)c2ccncc2)CCN(C)C1 (single isomer, unassigned) [3b]	3	tachycardia	−11.6	stable from 90 to 180 minutes	~−6	
Cc1ccc2c(c1)c1c(n2CC(O)c2ccncc2)CCN2CCCC12 (single isomer, unassigned) [129d]						showed inverse agonist activity
